SMILES strings stand for the structures. pIC50: −log10 of the molar value. A value given as a limit tells only on which side of the number the result lay.

One experiment addresses T1, FGF-2 (Homo sapiens, UniProt P09038).
T1 construct: purchased Peprotech 100-18C
The experiment can be described thus: FGF-2 induced sprouting of HUVEC, spheroid-based cellular angiogenesis assay. It counts as cell-based. To be noted: FGF-2 25 ng/mL preincubated with compound, 24 h. The essentials:
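Spheroids of 400 HUVEC (passage 3–4), embedded in collagen gel, were stimulated with FGF-1, FGF-2 or VEGF-A (final 25 ng/mL) preincubated 30 min at 37°C with compound (final 1.56–100 μM).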

For a further experiment, the system named is Human neutrophils. The experiment can be described thus: Inhibition of ROS production in human neutrophils (isoluminol chemiluminescence). It counts as cell-based. Conditions: Homo sapiens, Neutrophil, fMLP+TNF-α stimulated PMN. The gist of the method: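 Neutrophils from healthy-donor buffy coats (3×10^6/ml in HBSS with Ca/Mg) pre-incubated 30 min at 37° C with compound (0.1–10 μM), primed with TNF-α 20 ng/ml for 10 min, then added to fibrinogen-coated wells. Isoluminol/HRP chemiluminescence recorded every 25 sec for 250 sec after fMLP (1 μM), background-subtracted.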

T1 sequence (P09038 134-288): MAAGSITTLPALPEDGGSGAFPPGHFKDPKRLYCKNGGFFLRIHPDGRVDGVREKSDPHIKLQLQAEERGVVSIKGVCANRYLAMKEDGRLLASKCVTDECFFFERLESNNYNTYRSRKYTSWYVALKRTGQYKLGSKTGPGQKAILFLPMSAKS

A word on the pIC50: it is the negative decadic logarithm of the IC50, by convention in mol/L. By inhibition is commonly meant how much of the control response was suppressed. Low readings indicate a response near the control, high ones a response far below the control. For the compound `O=C(O)c1cc(NC(=O)c2cc(O)c(C(=O)O)cc2O)cc(NC(=O)c2cc(O)c(C(=O)O)cc2O)c1` [Ib-010a, 3,5-bis(2,5-dihydroxy-4-carboxybenzoylamino)benzoic acid], the negative logarithm of the IC50 (pIC50) on FGF-2 is 5.42. In the experiment with Human neutrophils, this compound showed an inhibition at 0.3 µM of 71.8% and a pIC50 of 5.97.
Turning to `CC(=O)N(Cc1cc(O)c(C(=O)O)cc1O)Cc1cc(O)c(C(=O)O)cc1O` [IIIc-057a, N,N-Bis(4-carboxy-2,5-dihydroxyphenylmethyl)acetamide], the negative-log IC50 (pIC50) on FGF-2 was 4.11. For the same compound, in the experiment with Human neutrophils, 0.3 µM produced 90.3% inhibition.
The matching figures for `O=C(Nc1ccccc1-c1nnn[nH]1)c1cc(O)c(C(=O)Nc2ccccc2-c2nnn[nH]2)cc1O` [Ic-001aTz2, N1,N4-bis(2-(1H-tetrazol-5-yl)phenyl)-2,5-dihydroxyterephthalamide]: 4.15 and 60.6%.
For `O=C(O)c1cc(O)cc(CSCc2cc(O)cc(C(=O)O)c2O)c1O` [IVc-058a, 3-((2,5-Dihydroxy-3-carboxyphenyl)methylthiomethyl)-2,5-dihydroxybenzoic acid], the negative logarithm of the IC50 (pIC50) on FGF-2 is 5.31; with Human neutrophils, 6.54. In the experiment with Human neutrophils, this compound gave an inhibition at 0.3 µM of 77%.
`O=C(O)c1cc(O)c(C(=O)Nc2ccccc2C(=O)O)cc1O` [Ia-001a, 4-(2-carboxyphenylaminocarbonyl)-2,5-dihydroxybenzoic acid]: the pIC50 on FGF-2 is 4.41. In addition, in the experiment with Human neutrophils, the inhibition at 0.3 µM came out at 48% and the pIC50 is 6.45.
Turning to `O=C(O)Cc1cc(O)c(C(=O)Nc2ccccc2-c2nnn[nH]2)cc1O` [IIIa-001aTz], on FGF-2, the pIC50 was 4.85. Testing at 0.3 µM with Human neutrophils gave an inhibition of 69.3%.
`O=C(O)c1cc(NC(=O)c2cc(O)c(C(=O)Nc3ccc(O)c(C(=O)O)c3)cc2O)ccc1O` [Ic-007a, 5-(4-(3-carboxy-4-hydroxyphenylaminocarbonyl)-2,5-dihydroxybenzamido)-2-hydroxy benzoic acid]: in the experiment with Human neutrophils, the inhibition at 0.3 µM is 58% and the negative-log IC50 (pIC50) was 5.57.
In the case of `O=C(O)c1ccccc1CNC(=O)c1cc(O)cc(C(=O)O)c1O` [IIa-053a, 3-(2-Carboxyphenylmethylaminocarbonyl)-2,5-dihydroxybenzoic acid], the pIC50 on FGF-2 is 4.74. In the experiment on Human neutrophils, the inhibition at 0.3 µM was 63.1% and the negative logarithm of the IC50 (pIC50) was 6.21.
For the compound `COC(=O)c1cc(OC(C)=O)cc(CS(=O)(=O)Cc2cc(OC(C)=O)cc(C(=O)OC)c2OC(C)=O)c1OC(C)=O` [IVc-059a-E2-A4], the pIC50 on FGF-2 was at most 3.70; with Human neutrophils, 5.38. Further, in the experiment with Human neutrophils, the inhibition at 0.3 µM turned out to be 29.2%.
With `O=C(O)c1cc(NC(=O)c2cc(O)cc(C(=O)Nc3ccc(O)c(C(=O)O)c3)c2O)ccc1O` [IIc-007a, 5-(3-(3-carboxy-4-hydroxyphenylaminocarbonyl)-2,5-dihydroxybenzamido)-2-hydroxy benzoic acid], the negative-log IC50 (pIC50) on FGF-2 is 4.04. In the experiment with Human neutrophils, the inhibition at 0.3 µM was 93%.
The matching figures for `O=C(O)c1cc(O)c(CN(Cc2cc(O)c(C(=O)O)cc2O)Cc2cc(O)c(C(=O)O)cc2O)cc1O` [IIIc-061a, Tris(4-carboxy-2,5-dihydroxyphenylmethyl)amine]: 5.12 and 92.5%.
Consider `O=C(O)c1cc(O)c(C(=O)Nc2ccc(-c3nnn[nH]3)cc2)cc1O` [Ia-003a-Tz, 4-(4-(1H-tetrazol-5-yl)phenyl-aminocarbonyl)-2,5-dihydroxybenzoic acid], for which the pIC50 at FGF-2 was 4.35. In the experiment with Human neutrophils, this compound gave an inhibition at 0.3 µM of 62.2% and a pIC50 of 5.60.
The matching figures for `O=C(O)c1cc(O)c(C(=O)Nc2ccccc2-c2nnn[nH]2)cc1O` [Ia-001a-Tz, 4-(2-(1H-tetrazol-5-yl)phenyl-aminocarbonyl)-2,5-dihydroxybenzoic acid]: 4.70, 54.3% and 5.81.
As for `O=C(O)c1cc(NC(=O)c2cc(O)c(C(=O)Nc3ccccc3-c3nnn[nH]3)cc2O)ccc1O` [Ic-001a-Tz/004a, 5-(4-(2-(1H-tetrazol-5-yl)phenylaminocarbonyl)-2,5-dihydroxybenzamido)-2-hydroxy benzoic acid], at FGF-2, the negative-log IC50 (pIC50) was 4.06. The compound also showed an inhibition at 0.3 µM in the experiment with Human neutrophils of 82.8%.
For `O=C(O)c1cc(O)c(C(=O)Nc2ccccc2S(=O)(=O)O)cc1O` [Ia-001c, 2,5-dihydroxy-4-(2-sulfophenylaminocarbonyl)benzoic acid], the negative-log IC50 (pIC50) at FGF-2 is 4.89; in the experiment with Human neutrophils it was 5.62. In the experiment with Human neutrophils, this compound returned an inhibition at 0.3 µM of 40.4%.
As for `O=C(O)c1cc(O)cc(CS(=O)(=O)Cc2cc(O)cc(C(=O)O)c2O)c1O` [IVc-059a, 3-((2,5-Dihydroxy-3-carboxyphenyl)methylsulfonylmethyl)-2,5-dihydroxybenzoic acid], the pIC50 at FGF-2 was 5.57. Besides, in the experiment on Human neutrophils, 0.3 µM produced 74% inhibition and the negative-log IC50 (pIC50) was 6.83.
Regarding `O=C(O)c1cc(O)ccc1NC(=O)c1cc(O)cc(C(=O)Nc2ccc(O)cc2C(=O)O)c1O` [IIc-009a, 2-(3-(2-carboxy-4-hydroxyphenylaminocarbonyl)-2,5-dihydroxybenzamido)-5-hydroxyl benzoic acid], at 0.3 µM the inhibition with Human neutrophils was 75.3%.
As to `O=C(O)Cc1cc(O)c(C(=O)Nc2c(C(=O)O)cccc2C(=O)O)cc1O` [IIIa-013a, 2-(4-(carboxymethyl)-2,5-dihydroxybenzamido)isophthalic acid], on FGF-2, the negative-log IC50 (pIC50) is 4.51. The compound also came in with an inhibition at 0.3 µM with Human neutrophils of 76.5%.
In the experiment on Human neutrophils, `CCOC(=O)c1cc(NC(=O)c2cc(O)c(C(=O)OCC)cc2O)cc(NC(=O)c2cc(O)c(C(=O)OCC)cc2O)c1` [Ib-010a-E3, ethyl 3,5-bis(2,5-dihydroxy-4-ethoxycarbonylbenzoylamino)benzoate] gave an inhibition at 0.3 µM of 36.4% and a pIC50 of 5.19.
As for `O=C(O)c1cc(NC(=O)c2cc(O)c(C(=O)O)cc2O)cc(C(=O)O)c1` [Ia-015a, 5-(4-carboxy-2,5-dihydroxybenzamido)isophthalic acid], on FGF-2, the negative-log IC50 (pIC50) is 5.03. In the experiment with Human neutrophils, this compound gave an inhibition at 0.3 µM of 43.8% and a pIC50 of 6.41.

Values taken from patent US20230150951A1, “2,5- OR 2,6-DISUBSTITUTED HYDROQUINONE DERIVATIVES WITH AT LEAST ONE CARBOXY, SULFO OR AMIDO GROUP USEFUL AS MEDICAMENTS” (OM PHARMA SA, priority 2020, published 2023).
